Laboratory results reported in PMC12145819, “Challenging activity and signaling bias in tachykinin NK1 and NK2 receptors by truncated neuropeptides” (The Journal of Biological Chemistry, 2025).
Blank lines part the entries; values can stand above or below the compound they belong to. No end group written: not given here.

Legend:
NK2R WT (human TACR2) [1] = target: T1, NK2R WT (human TACR2) (Homo sapiens, UniProt P21452); test: IP3 accumulation assay (Gq activation), NK2R; type: cell-based
T1 construct: host or cells: COS7 cells, transient calcium-precipitation transfection
T1 sequence (P21452 1-398): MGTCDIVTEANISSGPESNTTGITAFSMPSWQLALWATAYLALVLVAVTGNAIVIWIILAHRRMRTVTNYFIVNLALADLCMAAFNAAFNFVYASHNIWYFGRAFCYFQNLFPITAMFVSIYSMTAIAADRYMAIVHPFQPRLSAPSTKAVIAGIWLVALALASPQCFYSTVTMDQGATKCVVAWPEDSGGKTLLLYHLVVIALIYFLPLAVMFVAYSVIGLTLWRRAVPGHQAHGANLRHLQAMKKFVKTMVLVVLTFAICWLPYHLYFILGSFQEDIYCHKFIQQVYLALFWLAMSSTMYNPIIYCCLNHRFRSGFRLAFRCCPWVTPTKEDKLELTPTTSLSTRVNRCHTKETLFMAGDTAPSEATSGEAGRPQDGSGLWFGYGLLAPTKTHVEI
Protocol: (§1) COS7 cells were plated in either clear- or white- or white with clear bottom 96-well plates that were coated with poly-D-lysine (Sigma-Aldrich) 30 min prior to cell seeding (20.000 cells/well). The following day plates were transiently transfected using calcium precipitation with 200 ng/well DNA of receptor DNA and for the cAMP assays a 1000 ng/well of CAMYEL in a culture medium with the addition of 100 μM (final concentration) chloroquine. Transfection was stopped 5 h later with the addition of a fresh maintenance medium.
(§2) COS7 cells seeded in clear 96-well plates were incubated with 0.5 μCi/ml myo [3H]inositol (PerkinElmer) in 100 μl growth medium overnight following the transfection. The subsequent day cells were washed twice with 200 μl/well HBSS (GIBCO, Life Technologies) and preincubated for 5 min at 37 °C with 100 μl/well HBSS buffer supplemented with 10 mM LiCl. Ligand addition was followed by 90 min incubation at 37 °C. To stop ligand incubation, cells were lysed with 40 μl 10 mM formic acid followed by 30 min incubation on ice. Subsequently, 35 μl of the lysate was transferred to white 96-well plates together with 60 μl of 1:8 diluted YSi SPA scintillation beads (PerkinElmer). Plates were sealed and vigorously shaken for 15 min followed by 5 min centrifugation at 1500 rpm. Measurements (scintillation) were recorded on a MicroBeta (PerkinElmer) after a 4 h delay, and determinations were made in duplicates.
(§3) In both assay formats, the measurement window could shift between runs without affecting the overall curve shape. Emax and Emin values often shifted uniformly upward or downward, while the sigmoidal profile remained consistent, contributing to increased standard deviation.
(§4) All concentration-response curves have been calculated using Prism 10 software (GraphPad Software, www.graphpad.com) nonlinear regression with four parameters. SD is used for concentration-response curves to illustrate variability in experimental measurements. However, when comparing LogEC50 values, standard error of the mean (SEM) is used to reflect the precision of the estimated means and facilitate statistical comparisons. This approach ensures an accurate representation of variability while maintaining appropriate statistical rigor for hypothesis testing. All data consist of two technical replicates from three biological replicates. Statistical significance of differences between LogEC50 values (based on SEM estimates) was assessed using an unpaired two-tailed t test. Normal distribution of LogEC50 values was confirmed by the Shapiro–Wilk test. p-Values were represented using asterisks: ns for p > 0.05 (not significant), ∗ for p ≤ 0.05, ∗∗ for p ≤ 0.01, ∗∗∗ for p ≤ 0.001, and ∗∗∗∗ for p ≤ 0.0001.

NK2R WT (human TACR2) [2] = target: T1, NK2R WT (human TACR2); test: BRET-based cAMP assay (Gs activation), NK2R; type: cell-based
Protocol: (§5) All receptor constructs of WT and modified human TACR1 and TACR2 were inserted into the pcDNA3.1(+)-C-DYK vector (Genscript) whereas CAMYEL ([34]) was expressed via pcDNA3.1(+) vector.
COS7 cells were tested monthly for mycoplasma and kept negative. COS7 cells were plated in either clear- or white- or white with clear bottom 96-well plates that were coated with poly-D-lysine (Sigma-Aldrich) 30 min prior to cell seeding (20.000 cells/well). The following day plates were transiently transfected using calcium precipitation with 200 ng/well DNA of receptor DNA and for the cAMP assays a 1000 ng/well of CAMYEL in a culture medium with the addition of 100 μM (final concentration) chloroquine. Transfection was stopped 5 h later with the addition of a fresh maintenance medium.
(§6) The intracellular level of cAMP was monitored in real-time using BRET. This was achieved by implementing a construct consisting of a cAMP binding protein (exchange protein activated by cAMP (EPAC)) which has been flanked by a BRET pair consisting of Renilla luciferase (Rluc) and yellow fluorescent protein (YFP). This construct is called CAMYEL (cAMP sensor using YFP-Epac-Rluc) and enables cAMP production to be sensed as Epac change conformations in response to increasing levels of cAMP, ultimately resulting in a loss of BRET signal.
On the day of the assay, white 96-well plates with COS7 cells were washed twice with 100 μl/well Hank’s balanced salt solution (HBSS) (GIBCO, Life Technologies) and preincubated for 30 min at 37 °C with 85 μl HBSS. Luciferase substrate coelenterazine h (Thermo Fisher Scientific) was added to a final concentration of 5 μM, and a baseline measurement was taken after 5 min. […] Determinations were made in minimum duplicates.
as §3, §4

NK1R WT (human TACR1) [3] = target: T2, NK1R WT (human TACR1) (Homo sapiens, UniProt P25103); test: IP3 accumulation assay (Gq activation), NK1R; type: cell-based
T2 construct: host or cells: COS7 cells, transient calcium-precipitation transfection
Protocol: as §1, §2, §3, §4

NK1R WT (human TACR1) [4] = target: T2, NK1R WT (human TACR1); test: BRET-based cAMP assay (Gs activation), NK1R; type: cell-based
Protocol: as §5
COS7 cells were maintained in Dulbecco's modified Eagle's medium 1885 with GlutaMAX supplemented with 10% fetal bovine serum (Sigma-Aldrich), 100 units/ml penicillin and 100 μg/ml streptomycin at 37 °C with 10% CO2. […] COS7 cells were plated in either clear- or white- or white with clear bottom 96-well plates that were coated with poly-D-lysine (Sigma-Aldrich) 30 min prior to cell seeding (20.000 cells/well). The following day plates were transiently transfected using calcium precipitation with 200 ng/well DNA of receptor DNA and for the cAMP assays a 1000 ng/well of CAMYEL in a culture medium with the addition of 100 μM (final concentration) chloroquine. Transfection was stopped 5 h later with the addition of a fresh maintenance medium.
as §6
On the day of the assay, white 96-well plates with COS7 cells were washed twice with 100 μl/well Hank’s balanced salt solution (HBSS) (GIBCO, Life Technologies) and preincubated for 30 min at 37 °C with 85 μl HBSS. Luciferase substrate coelenterazine h (Thermo Fisher Scientific) was added to a final concentration of 5 μM, and a baseline measurement was taken after 5 min. […] The BRET signal was calculated as the ratio of emission intensity at 535 nm (citrine) to the emission intensity at 475 nm (luciferase). Determinations were made in minimum duplicates.
as §3
All concentration-response curves have been calculated using Prism 10 software (GraphPad Software, www.graphpad.com) nonlinear regression with four parameters. SD is used for concentration-response curves to illustrate variability in experimental measurements. However, when comparing LogEC50 values, standard error of the mean (SEM) is used to reflect the precision of the estimated means and facilitate statistical comparisons. […] All data consist of two technical replicates from three biological replicates. Statistical significance of differences between LogEC50 values (based on SEM estimates) was assessed using an unpaired two-tailed t test. Normal distribution of LogEC50 values was confirmed by the Shapiro–Wilk test. p-Values were represented using asterisks: ns for p > 0.05 (not significant), ∗ for p ≤ 0.05, ∗∗ for p ≤ 0.01, ∗∗∗ for p ≤ 0.001, and ∗∗∗∗ for p ≤ 0.0001.

NK1R [5] = conditions: cited from earlier work
NK1R [6] = conditions: cited from earlier work; remark: listed apart in the source
[7] = tested on: NK1R-Q24 mutated to asparagine; conditions: NK1R-Q24 to asparagine vs WT; cited from earlier work
[8] = tested on: NK1R-R177 mutated to lysine; conditions: NK1R-R177 to lysine vs WT; cited from earlier work
[9] = tested on: NK1R-R177 mutated to alanine; conditions: NK1R-R177 to alanine vs WT; cited from earlier work
[10] = Fig. 6B, given as log(EC50), transfected COS7 cells, three independent experiments in duplicates, read-out: log(EC50), IP3 - NK2R WT (converted)
[11] = Fig. 6A, given as log(EC50), transfected COS7 cells, three independent experiments in duplicates, read-out: log(EC50), cAMP - NK2R WT (converted)
[12] = read-out: log(EC50), IP3 - NK1R WT (converted)
[13] = read-out: log(EC50), cAMP - NK1R WT (converted)
[14] = Fig. 2D, analogs with free N termini, given as log(EC50), transfected COS7 cells, three independent experiments in duplicates
[15] = Fig. 2C, analogs with free N termini, given as log(EC50), transfected COS7 cells, three independent experiments in duplicates
[16] = Fig. 2A, acetylated analogs, given as log(EC50), transfected COS7 cells, three independent experiments in duplicates

T2 sequence (P25103 whole entry): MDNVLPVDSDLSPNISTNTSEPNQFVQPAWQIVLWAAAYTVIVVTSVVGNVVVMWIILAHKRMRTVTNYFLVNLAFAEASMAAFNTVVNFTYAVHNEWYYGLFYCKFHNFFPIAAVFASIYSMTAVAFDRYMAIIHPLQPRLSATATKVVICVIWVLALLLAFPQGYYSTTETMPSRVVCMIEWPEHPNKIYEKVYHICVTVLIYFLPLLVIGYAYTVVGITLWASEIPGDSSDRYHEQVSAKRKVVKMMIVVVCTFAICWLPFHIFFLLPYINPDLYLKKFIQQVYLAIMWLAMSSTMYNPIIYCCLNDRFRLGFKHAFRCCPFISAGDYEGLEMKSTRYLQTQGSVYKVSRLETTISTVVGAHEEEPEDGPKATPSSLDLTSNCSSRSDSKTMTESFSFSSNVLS

EC50 (NK2R WT (human TACR2) [1]; [10]): 200 nM
EC50 (NK2R WT (human TACR2) [2]; [11]): 1580 nM
EC50 (NK1R WT (human TACR1) [3]; [12]): 50.1 nM
EC50 (NK1R WT (human TACR1) [4]; [13]): 316 nM
Compound: SFVGLM-NH2 [SFVGLM-NH2]

EC50 (NK1R WT (human TACR1) [3]; [14]): 12.6 nM
EC50 (NK1R WT (human TACR1) [3]; Fig. 5A, Gq activation, given as log(EC50), transfected COS7 cells, three independent experiments in duplicates): 20 nM
lower Gq potency (NK1R WT (human TACR1) [3]; NK1R, Fig. 5A, compared with acetylated analog and SP): 15 fold
EC50 (NK1R WT (human TACR1) [4]; [15]): 15.8 nM
Compound: QFFGLM-NH2 [QFFGLM-NH2]
activity in IP3 accumulation assay (Gq) compared to SP (NK1R [5]): half activity
lower activity in BRET-based cAMP assay (Gs) compared to SP (NK1R [6]): 16 fold

Compound: CSCC[C@H](NC(=O)[C@H](CC(C)C)NC(=O)CNC(=O)[C@@H](NC(=O)[C@H](Cc1ccccc1)NC(=O)[C@H](CO)NC(=O)[C@@H](N)CC(=O)O)C(C)C)C(N)=O [DSFVGLM-NH2]
EC50 (NK2R WT (human TACR2) [1]): 10 nM
EC50 (NK2R WT (human TACR2) [2]): 10 nM
increase in Gs potency compared to acetylated counterpart (NK2R WT (human TACR2) [2]; NK2R, Fig. 6A, analog with a free N terminal): five

EC50 (NK2R WT (human TACR2) [1]; [10]): 20 nM
EC50 (NK2R WT (human TACR2) [2]; [11]): 50.1 nM
Compound: CSCC[C@H](NC(=O)[C@H](CC(C)C)NC(=O)CNC(=O)[C@@H](NC(=O)[C@H](Cc1ccccc1)NC(=O)[C@H](CO)NC(=O)[C@H](CC(=O)O)NC(C)=O)C(C)C)C(N)=O [Ac-DSFVGLM-NH2]

EC50 (NK1R WT (human TACR1) [3]; [12]): 1.58 nM
EC50 (NK1R WT (human TACR1) [4]; [16]): 3.98 nM
reduction in Gs potency (NK1R WT (human TACR1) [4]; NK1R, relative to SP): 5.0 fold
Compound: Ac-QFFGLM-NH2 [Ac-QFFGLM-NH2]

EC50 (NK1R WT (human TACR1) [3]; [12]): 3.16 nM
EC50 (NK1R WT (human TACR1) [4]; [16]): 1.26 nM
Compound: Ac-QQFFGLM-NH2 [Ac-QQFFGLM-NH2]

EC50 (NK2R WT (human TACR2) [1]; [10]): 50.1 nM
EC50 (NK2R WT (human TACR2) [2]; [11]): 316 nM
EC50 (NK1R WT (human TACR1) [3]; [12]): 7.94 nM
EC50 (NK1R WT (human TACR1) [4]; [13]): 200 nM
Compound: Ac-SFVGLM-NH2 [Ac-SFVGLM-NH2]

Compound: CSCC[C@H](NC(=O)[C@H](CC(C)C)NC(=O)CNC(=O)[C@H](Cc1ccccc1)NC(=O)[C@H](Cc1ccccc1)NC(=O)[C@H](CCC(N)=O)NC(=O)[C@H](CCC(N)=O)NC(=O)[C@@H]1CCCN1C(=O)[C@H](CCCCN)NC(=O)[C@@H]1CCCN1C(=O)[C@@H](N)CCCNC(=N)N)C(N)=O [SP, substance P]
reduction of binding affinity for SP (factor) [7]: five
reduction of binding affinity for SP (factor) [8]: 60
reduction of binding affinity for SP (factor) [9]: 46

EC50 (NK1R WT (human TACR1) [3]; [14]): 5.01 nM
EC50 (NK1R WT (human TACR1) [4]; [15]): 7.94 nM
Compound: QQFFGLM-NH2 [QQFFGLM-NH2]
